Measurements from PMC4992025, “A Colorimetric Microplate Assay for DNA-Binding Activity of His-Tagged MutS Protein” (Molecular Biotechnology, 2016).

Biological target: T1, TthMutS (Thermus thermophilus, UniProt Q56239)
T1 construct: gene mutS; N-terminal His-tag translational fusion, tag kept; expressed in E. coli BL21(DE3)pLysS; IMAC purified; immobilized on nickel plate; 92 kDa monomer (stated for MutS generally)
T1 sequence (Q56239 2-819): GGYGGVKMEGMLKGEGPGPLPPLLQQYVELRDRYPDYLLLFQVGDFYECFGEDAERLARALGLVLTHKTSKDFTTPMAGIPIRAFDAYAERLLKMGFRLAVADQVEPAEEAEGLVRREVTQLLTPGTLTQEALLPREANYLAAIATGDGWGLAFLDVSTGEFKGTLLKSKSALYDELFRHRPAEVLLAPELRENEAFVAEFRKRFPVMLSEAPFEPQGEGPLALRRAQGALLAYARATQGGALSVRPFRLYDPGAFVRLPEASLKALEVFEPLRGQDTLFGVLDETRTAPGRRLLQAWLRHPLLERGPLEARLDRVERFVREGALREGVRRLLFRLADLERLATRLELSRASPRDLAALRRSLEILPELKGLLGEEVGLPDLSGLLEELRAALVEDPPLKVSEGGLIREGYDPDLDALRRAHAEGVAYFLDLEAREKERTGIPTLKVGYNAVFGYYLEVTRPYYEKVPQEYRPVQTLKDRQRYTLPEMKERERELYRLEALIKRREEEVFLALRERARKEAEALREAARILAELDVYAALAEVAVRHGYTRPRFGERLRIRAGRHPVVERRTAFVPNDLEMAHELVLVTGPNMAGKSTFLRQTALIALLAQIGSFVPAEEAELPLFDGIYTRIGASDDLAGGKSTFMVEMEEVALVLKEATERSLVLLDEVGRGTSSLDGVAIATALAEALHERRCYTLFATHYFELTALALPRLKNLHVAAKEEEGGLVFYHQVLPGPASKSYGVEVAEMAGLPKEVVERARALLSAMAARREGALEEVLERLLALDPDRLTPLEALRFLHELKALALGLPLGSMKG
Assay: colorimetric nickel-plate DNA mismatch binding assay (A620)
Assay type: biochemical
Settings: 1 mM ADP; 300 mM salt (PBSx2); room temperature; immobilized his-tagged protein; modulator of TG49 mismatch versus TA49 DNA binding

## Nc1ncnc2c1ncn2[C@@H]1O[C@H](COP(=O)(O)OP(=O)(O)O)[C@@H](O)[C@H]1O [ADP]
  colorimetric nickel-plate DNA mismatch binding assay (A620): In the presence of ADP, the specificity of MutS from T. thermophilus strongly increased
